How the values were obtained:
TRAMP prostate tumors = test: TRAMP spontaneous prostate cancer model, weekly low dose oxaliplatin; assay type: in vivo, mouse; settings: for prostate tumor regression 30 days after lymphocyte transfer: TRAMP
From the text: (§1) All TRAMP mice, their derivatives and s.c. Myc-Cap transplantation were in the FVB genetic background and their basic immune parameters are shown in FIG. 15a-m. For s.c. TRAMP-C2 tumors, C57BL/6 mice were used. In both s.c. tumors, 2-3×10^6 cells/mouse were transplanted. More detailed information is as follows.
C57BL/6 and FVB control mice were purchased from Charles River Laboratories and CD45.1 mice^1 were purchased from Jackson Laboratory, and all were bred at the University of California San Diego (UCSD) animal facility. C57BL/6-Tg(TRAMP)8247Ng/J (TRAMP mice)^2 were backcrossed to the FVB strain for more than 10 generations. The median survival of TRAMP-FVB mice was 23 weeks compared to 52 weeks for TRAMP-C57BL/6 mice. TRAMP mice were crossed with B cell-deficient (Jh^−/−) mice^3, CTL-deficient (Cd8a^−/−) mice^4 or Rag1^−/− mice, which lack both B and T cells^5, all in the FVB-background. OT-I mice were obtained from Taconic^6. Tgfbr2^F/F (FVB-background) mice were obtained from Dr. Hal Moses at Vanderbilt University^7. Tcrb^−/−, Cd19-Cre, Il10^−/− and CD45.1 mice were purchased from the Jackson Laboratory. IgA gene-deficient (Iga^−/−) mice^8 were obtained from Baylor College of Medicine. Pdl1/2^−/− mice were obtained from Genentech (San Francisco, Calif.). Cd19-Cre and Iga^−/− mice were backcrossed to the FVB strain for more than 10 generations. All mice were maintained in filter-topped cages on autoclaved food and water at the UCSD animal facility and all experiments were performed in accordance with UCSD and NIH guidelines and regulations.
(§2) Mouse treatment studies were “matched design control trials.” Accordingly, mice were randomly chosen and paired based on sex (male), age (FIG. 6a) and tumor size. For transplanted tumor models, tumor size was defined by the median tumor volume (e.g. 400 mm^3, for late treatments, FIG. 6a,f). For TRAMP transgenic tumor models, treatment decisions were made based on age and mice were randomly chosen including a control littermate. An identification code was assigned to each tumor-bearing mouse both in the transplanted and transgenic models, and the investigators were blinded to treatment allocation at the time of tumor volume measurement, autopsy and analysis.
Anti-PD-L1 antibody was i.v. injected at 10 mg/kg once, followed by 5 mg/kg bi-weekly. Mice were treated for three weeks for a total of 7 doses/animal.

Myc-Cap (MC) cells = test: Cell death and autophagy of Myc-Cap cells in vitro (Annexin V/PI, LC3A flow cytometry); assay type: cell-based, mouse; settings: for apoptotic cell death of MC cells (Annexin V, propidium iodide): both at 20 µM
From the text: (§3) All results are means±s.e.m.
For adoptive T cell transfer (ATCT) CD8^+ T cells were isolated from single cell suspensions, prepared from spleens and lymph nodes as described above, using CD8α-specific microbeads and MACS-columns (both Miltenyi Biotec GmbH, Bergisch Gladbach, Germany), and 5×10^6 CD8^+ T cells were transferred intraperitoneally (i.p.; FIG. 14a-j). For adoptive B cell transfer (ABCT), B cells (B220^+/CD19^+) were isolated from single cell suspensions prepared from spleens using CD19- and B220-specific microbeads and MACS-columns, and 5×10^6 B cells were transferred i.p. (FIG. 4g-h, FIG. 12n,o). For adoptive splenocytes transfer (ACT), single cell suspensions prepared from spleens were transferred i.p., with one total spleen injected per mouse. Labelling with 5-(and 6-) carboxyfluorescein diacetate succinimidyl ester (CFSE; Molecular Probes, Eugene, Oreg.) was done according to manufacturer's protocol. 5×10^6 CD8^+ T cells or 7×10^6 B cells were transferred (equal to one spleen per mouse; FIG. 5a-i and FIG. 14k-q). For combined adoptive B and T cell transfer (FIG. 5j-1, FIG. 14r-t), T cells were isolated from WT-FVB mice immunized with a Myc-Cap cell lysate as previously described^10. […] The extent of cell death was determined by flow cytometry, showing that more than 90% of cells were positive for Annexin V and PI. The dead cells were injected subcutaneously (s.c.) into WT-FVB mice. Seven days later, T cells were isolated from single cell suspensions of spleen and LN using a Pan T cell isolation Kit (Miltenyi Biotec). B cells were isolated from spleens of naïve FVB-WT or FVB-Tgfbr2^ΔB mice using a Pan B cell isolation kit (Miltenyi Biotec). MC-tumor bearing Rag1^−/− mice received 5×10^6 T cells with or without 5×10^6 B cells (98% pure) from WT or Tgfbr2^ΔB mice. Purity was analyzed on a Beckman Coulter Cyan ADP flow cytometer and was always >98%.

serum IgA, IgG = test: Serum IgA and IgG ELISA in tumor-bearing mice; assay type: in vivo, mouse; settings: TRAMP and MC-tumor models, oxaliplatin alone
Description: Anti-SV40 Tag immunoglobulin ELISA was performed as previously described^33. IgA and IgG ELISA kits were purchased from eBioscience, and used according to manufacturer's protocols. Tumoral single cell suspension has been prepared as described above in the flow cytometry section, and was washed 2-3 times with 1×PBS/2mMEDTA/2% FCS, to remove soluble IgA. Thereafter, about 3×10^6 cells/24-well were plated in either 10% FCS/DMEM or Hybridoma medium (Life Technology). After 24 hrs, the supernatants were analysed for IgA content. Media without cells were used as controls.

TRAMP-C2 tumors = test: s.c. TRAMP-C2 tumor model with adoptive T cell transfer (ATCT); assay type: in vivo, mouse
From the text: Immunogenic TRAMP-C2 cells were s.c. inoculated into WT or Tcrβ^−/− mice. […] Immunogenic TRAMP-C2 cells were s.c. inoculated into WT or Rag1^−/− −×OT-1 mice (no B cells), that harbor CD8^+ T cells specific for chicken ovalbumin which is not expressed by TRAMP-C2 cells. […] All results are means±s.e.m. Mann-Whitney and t tests were used to calculate statistical significance.
For adoptive T cell transfer (ATCT) CD8^+ T cells were isolated from single cell suspensions, prepared from spleens and lymph nodes as described above, using CD8α-specific microbeads and MACS-columns (both Miltenyi Biotec GmbH, Bergisch Gladbach, Germany), and 5×10^6 CD8^+ T cells were transferred intraperitoneally (i.p.; FIG. 14a-j). […] For adoptive splenocytes transfer (ACT), single cell suspensions prepared from spleens were transferred i.p., with one total spleen injected per mouse. Labelling with 5-(and 6-) carboxyfluorescein diacetate succinimidyl ester (CFSE; Molecular Probes, Eugene, Oreg.) was done according to manufacturer's protocol. […] Purity was analyzed on a Beckman Coulter Cyan ADP flow cytometer and was always >98%.

[1] = IgA production and immune parameters in tumor-free mice; assay type: in vivo, mouse; settings: LD, tumor-free WT or Tgfbr2ΔB mice
Description: as §3
For lymphocytes isolated from spleen and lymph nodes, standard protocols using filters have been used. Lymphocytes were isolated from human blood using Ficoll-Paque PLUS (GE Healthcare Life Science) according to manufacturer's recommendations. […] Moreover, Il10 and β-actin mRNA expression were analyzed on single cell level by flow cytometry in combination with CD45, IgA and IL-10 protein staining, using FlowRNA II Assay kit (Affymetrix eBioscience) according to manufacturer's protocols^9. Cells were analyzed on a Beckman Coulter Cyan ADP flow cytometer. Data were analyzed using FlowJo software (Treestar). […]
Anti-SV40 Tag immunoglobulin ELISA was performed as previously described^33. […] After 24 hrs, the supernatants were analysed for IgA content. […]

[2] = system: tumor-infiltrating B cells and CD8+ T cells; test: Flow cytometry / Q-RT-PCR of tumor-infiltrating lymphocytes in TRAMP and MC tumors; assay type: in vivo, mouse
Description: For lymphocytes isolated from spleen and lymph nodes, standard protocols using filters have been used. Lymphocytes were isolated from human blood using Ficoll-Paque PLUS (GE Healthcare Life Science) according to manufacturer's recommendations. For lymphocyte isolation from tumors (mouse and human), tumors were cut into small pieces and incubated in dissociation solution (RPMI medium supplemented with 5% FBS, collagenase type I (200 U/ml), collagenase type IV (200 U/ml), and DNase I (100 μg/ml) for 30 min at 37° C. After incubation, cell suspensions were passed through a 50 μm cell strainer and washed twice. For large tumors (≥0.7 g), hematopoietic cells were pre-enriched using density gradient centrifugation (Percoll or Ficoll), and red blood cells were lysed (RBC Lysis buffer, multi-species; eBioscience). For blocking of Fc-mediated interactions, mouse cells were pre-incubated with 0.5-1 μg of purified anti-mouse CD16/CD32 (93) per 100 μl and human cells were incubated with FcR blocking reagent (Miltenyi Biotec). Isolated cells were stained with labeled antibodies in PBS with 2% FCS and 2 mM EDTA or cell staining buffer (Biolegend). Dead cells were excluded based on staining with Live/Dead fixable dye (eBioscience). For intracellular cytokine staining, cells were restimulated (Myc-Cap cell lysate, PMA/ionomycin or PMA/ionomycin/LPS, as indicated) in the presence of a protein transport inhibitor cocktail containing Brefeldin A and Monensin (eBioscience), as indicated. For CD107, a staining antibody was added to the culture during the stimulation. After 5 hrs, cells were fixed and permeabilized with BD™ Cytofix/Cytoperm reagent for cytokine staining. BD™ transcription factor buffer was used for Foxp3 and T-bet staining and BD™ Phosflow was used for p-SMAD2/3 and p-STAT staining (BD Biosciences) according to manufacturer's recommendations. After fixation/permeabilization, cells were stained with labeled antibodies of interest. Moreover, Il10 and β-actin mRNA expression were analyzed on single cell level by flow cytometry in combination with CD45, IgA and IL-10 protein staining, using FlowRNA II Assay kit (Affymetrix eBioscience) according to manufacturer's protocols^9. Cells were analyzed on a Beckman Coulter Cyan ADP flow cytometer. Data were analyzed using FlowJo software (Treestar). Immune cell analysis of tumor-free mice of different genetic backgrounds (C57BL/6 and FVB) and different genetic ablations are shown in FIG. 15a-m.
Total RNA was extracted using an RNeasy Plus kit (Qiagen). RNA was reverse transcribed using an IScript kit (Biorad). Q-RT-PCR was performed using Ssofast EvaGreen supermix (Biorad) on a Biorad CFX96 machine. Primer sequences are listed below and generally were obtained from the NIH qPrimerDepot (http://mouseprimerdepot.nci.nih.gov). The relative expression levels of target genes were measured in triplicates and normalized against the level of RPL32 expression. Fold-difference (as relative mRNA expression) was calculated by the comparative CT method (2^(Ct(RPI,32-gene or interest))).

Myc-Cap (MC) tumors = test: s.c. Myc-Cap (MC) prostate tumor model; assay type: in vivo, mouse; settings: for regression of MC tumors raised in Jh−/− mice: LD, 3 weekly cycles, tumors 400 mm3
From the text: as §1, §2
2×10^6 Myc-Cap^11 or 3×10^6 TRAMP-C2^12 cells (purchased from ATCC) were s.c. injected into the right flank. Tumors were measured every 2-3 days using a caliper. Tumor volumes were calculated as width^2×length/2.
B cells were depleted as previously described^13. Mice were weekly injected (i.p.) with a mixture of monoclonal antibodies, each at 150 μg/mouse: rat anti-mouse CD19 (clone 1D3), rat anti-mouse B220 (clone RA36B2), and mouse anti-mouse CD22 (clone CY34). After 48 hrs, the mice were injected with a secondary antibody (mouse anti-rat kappa chain; GeneTex) at 150 μg/mouse. In addition, mice were injected weekly, but not on the same day, with 250 μg/mouse rat anti-mouse CD20 (Genentech). Rat anti-mouse IgG2a and IgG1 were used as isotype controls. Mice were treated for 3 weeks in total (FIG. 1g; FIG. 7i-p). […]

## O=C1[O][Pt]2([NH][C@@H]3CCCC[C@H]3[NH]2)[O]C1=O [oxaliplatin]
TRAMP prostate tumors; B cell-deficient TRAMP, Jh−/− mice
  PC growth, late treatment: remained oxaliplatin sensitive
TRAMP prostate tumors; LD oxaliplatin weekly, dependent on CTL
  TRAMP mouse survival: enhanced TRAMP mouse survival
TRAMP prostate tumors; Rag1−/− mice receiving T and B cells
  prostate tumor regression 30 days after lymphocyte transfer: led to tumor regression
TRAMP prostate tumors; Rag1−/− mice receiving only T cells
  prostate tumor regression 30 days after lymphocyte transfer: complete tumor regression
TRAMP prostate tumors; WT TRAMP mice, 6 mg/kg weekly, late treatment
  response of ≥0.7 g tumors to late chemotherapy: largely resistant
TRAMP prostate tumors; early treatment, regardless of B cell status
  response of early (≤0.2 g) TRAMP tumors: responded
Myc-Cap (MC) cells; 24 hrs
  apoptotic cell death of MC cells (Annexin V, propidium iodide): induced apoptotic cell death
Myc-Cap (MC) cells; MC cells, 24 hrs, 20 µM, compared with cisplatin
  stimulation of autophagy (LC3A): more effective in stimulating autophagy
Myc-Cap (MC) cells; Myc-Cap cells, oxaliplatin 40 μM, 48 hrs, flow cytometry
  cells positive for Annexin V and PI (extent of cell death): more than 90%
Serum IgA, IgG
  serum IgA: increased serum IgA
  serum IgG: little effect on serum IgG
TRAMP-C2 tumors; B cell-containing Tcrβ−/− mice
  TRAMP-C2 tumor rejection, oxaliplatin combined with ATCT: no tumor rejection took place
TRAMP-C2 tumors; Rag1−/−, OT-1 mice (no B cells)
  TRAMP-C2 tumor growth, ATCT together with oxaliplatin: tumor growth was inhibited
[1]
  IgA production and other immune parameters: no effect
[2]; MC tumors
  IL-21 expression in tumors: increased IL-21 expression
  Il10 mRNA expression in tumors: increased Il10 mRNA expression
  STAT3 phosphorylation in tumoral B cells: enhanced STAT3 phosphorylation
  proportion of tumoral B cells undergoing TGFβ signaling (p-SMAD2/3, Tgfb1 mRNA): increased the proportion of tumoral B cells undergoing TGFβ signaling
[2]; MC tumors in Jh−/− mice, oxaliplatin versus cisplatin
  abundance of tumor infiltrating CD8+ and CD4+ cells: increased the abundance
[2]; MC tumors, WT and Jh−/− mice, no differences between them
  induction of Nos2, Arg1, IL-12p35 and IL-12p40: induced other immunoregulatory molecules
[2]; TRAMP and MC tumors
  induction of Fas-L and PD-L1 on tumoral B cells: induced Fas ligand (Fas-L) and PD ligand 1 (PD-L1)
[2]; TRAMP and TRAMP, Jh−/− mice
  CD8+ cell recruitment into tumors: stimulated CD8^+ cell recruitment
[2]; TRAMP tumors
  abundance of LTα/β-producing B cells: barely increased
  oxaliplatin-induced IgA+ cells expressing both PD-L1 and IL-10: about 40%
[2]; WT mice bearing MC tumors
  amount of splenic IgA+ cells: modestly increased
[2]; after 3-4 cycles of oxaliplatin treatment
  tumoral B cells that were CD19+B220lowCD138+ plasma cells: at least 40%
[2]; after 3-4 cycles, depending on the tumor model used
  plasma cells that expressed IgA: 40-80%
[2]; after additional cycles
  abundance of IgA+ B cells among B220low cells: ~80%
[2]; after oxaliplatin
  IgA+ B cells expressing both Fas-L and PD-L1: about 50%
[2]; after oxaliplatin cycles
  number of tumoral B220+CD19+ B cells: greatly increased
[2]; after oxaliplatin treatment
  IgA+CD19+ plasmocytes containing both IL-10 mRNA and protein: 50%
[2]; after the first oxaliplatin cycle
  time at which IgA+ B cells became detectable: 48 h
Myc-Cap (MC) tumors; Cd8a−/− mice
  response of MC tumors: No response
Myc-Cap (MC) tumors; Iga−/− mice versus WT
  response of MC tumors to oxaliplatin with IgA ablation: potentiated the response to oxaliplatin
Myc-Cap (MC) tumors; 6 mg/kg
  regression of MC tumors raised in Jh−/− mice: led to regression of MC tumors
Myc-Cap (MC) tumors; MC tumors in Rag1−/− mice
  tumor regression and CTL activation after T cell ± B cell transfer: induced tumor regression and CTL activation only in mice receiving T cells, or T cells+TGFβR2-deficient B cells
Myc-Cap (MC) tumors; WT and Jh−/− mice
  tumor infiltration with CD45+ cells: enhanced tumor infiltration with CD45^+ cells
Myc-Cap (MC) tumors; WT mice, early treatment
  response of small MC tumors (≤100 mm3): chemotherapy responsive
Myc-Cap (MC) tumors; WT versus Jh−/− mice, late treatment
  response of large MC tumors (≥350-400 mm3): shrank upon oxaliplatin treatment only in Jh^−/− mice
Myc-Cap (MC) tumors; associated with oxaliplatin responsiveness
  caspase 3 activation in tumors (apoptosis): enhanced caspase 3 activation
Myc-Cap (MC) tumors; regardless of host genotype
  tumoral DNA damage response (histone H2AX phosphorylation): similarly activated

## N.N.[Cl][Pt][Cl] [cisplatin]
Myc-Cap (MC) cells; 24 hrs
  apoptotic cell death of MC cells (Annexin V, propidium iodide): induced apoptotic cell death
Myc-Cap (MC) tumors; 6 mg/kg
  regression of MC tumors raised in Jh−/− mice: ineffective
Myc-Cap (MC) tumors; MC tumors, 6 mg/kg
  immunogenic activity of low dose treatment: devoid of immunogenic activity

From patent US10722523B2, “Chemoimmunotherapy for epithelial cancer” (THE REGENTS OF THE UNIVERSITY OF CALIFORNIA, priority 2015, dated 2020)
